Read-outs that look alike come from different tables or passages of the source.
Legend:
UT-B = biological target: T1, UT-B (Rattus norvegicus, UniProt P97689); assay: Erythrocyte lysis assay for UT-B inhibition, rat erythrocytes; format: cell-based
T1 construct: endogenous in cells; host or cells: erythrocytes from male SD rats
T1 sequence (P97689 1-384): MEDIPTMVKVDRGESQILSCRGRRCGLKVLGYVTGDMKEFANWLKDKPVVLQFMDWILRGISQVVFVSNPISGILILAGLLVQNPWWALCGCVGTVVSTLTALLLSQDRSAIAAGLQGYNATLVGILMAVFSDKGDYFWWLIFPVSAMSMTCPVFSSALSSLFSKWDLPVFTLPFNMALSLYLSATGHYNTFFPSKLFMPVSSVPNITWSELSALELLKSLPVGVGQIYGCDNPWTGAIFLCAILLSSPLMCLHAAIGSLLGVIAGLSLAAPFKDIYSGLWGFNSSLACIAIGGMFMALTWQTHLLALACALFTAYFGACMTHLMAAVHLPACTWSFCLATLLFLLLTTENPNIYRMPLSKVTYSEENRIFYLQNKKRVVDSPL
Experimental: The erythrocyte lysis assay was modified from a method described previously. Erythrocytes obtained from veins were diluted to a hematocrit value of 2% in hyperosmolar PBS containing 1.25 mol/L urea and 5 mmol/L glucose and incubated at r.t. for 2 h. Then, 99 μL erythrocyte suspension from a reservoir was added to each well of a 96-well round-bottom microplate, then 1 μL of the testing compound (500, 125, 31.25, 7.81, 1.95, 0.488, 0.122, 0.031, 0.0076 μmol/L dissolved in DMSO) was added to erythrocyte suspension and shook it up with microoscillator for 1 min. Following 5 min incubation, 20 μL erythrocyte suspension was transferred into 96-well black microplates preloaded with 180 μL isotonic PBS (10 mM, urea-free). Erythrocyte lysis was monitored at 710 nm optical density (OD710) for 6 min, with lysis rates calculated using control values from the same plate as Equation (1):Lysis (%) = 100 × (Aneg − Atest)/(Aneg − Apos)(1) where Atest is the absorbance value from the test well, Aneg is from a negative no-lysis control well, and Apos is from a positive full-lysis control.

rat UT-B = biological target: T2, rat UT-B (Rattus norvegicus, UniProt P97689); assay: Transwell assay of UT-B inhibition in UT-B-MDCK cells; format: cell-based; details: read-out: IC50 against UT-B-mediated urea permeability
T2 construct: expressed in transfected cells
T2 sequence (P97689 1-384): T1 sequence (P97689 1-384)
Experimental: MDCK cells stably expressing rat UT-A1 or UT-B were cultured in DMEM supplemented with 10% FBS, and the mRNA levels of UT-A1 and UT-B were measured in our previous research. Urea flux was assessed according to previously established methods. MDCK cells (2 × 10^5 cells/cm^2) were grown on 12 mm collagen-coated Costar Transwell inserts (0.4 μm pore size, Corning) for 4 d at 37 °C in the presence of 5% CO2. Once the cells on the apical side formed a tight monolayer (transepithelial resistance 1 kΩ/cm^2), PBS (pH = 7.4, containing 10 μmol/L forskolin) with E3 or DMSO was added to the top (0.25 mL) and bottom (1 mL) compartments, and the cultures were incubated in the absence of urea for 30 min at 37 °C. As UT-B is located in the plasma membrane while UT-A1 resides in the cytoplasm, forskolin was used to stimulate the translocation of UT-A1 from the cytoplasm to the membrane for urea transport. Subsequently, the solution in the bottom compartment was replaced with PBS (pH 7.4, containing 10 μmol/L forskolin and E3 or DMSO) supplemented with 15 mmol/L urea. Apical fluid samples (5 μL) were collected at 0, 1, 3, 5, 10, 15, 20, 30, 40, 50, and 60 min. The samples were subjected to an assay for urea (Urea Colorimetric Assay Kit (Diacetyl Oxime Method), Elabscience, Wuhan, China) according to the kit procedure. Then, the inhibition rate was calculated as described previously.

[1] = system: rat hyponatremia model caused by SIADH; assay: Rat hyponatremia model caused by SIADH (dDAVP); format: in vivo
Experimental: The protocol for dDAVP-induced hyponatremia was adapted from a previous study, with tolvaptan chosen as the positive control. Preliminary experiments determined the dose of dDAVP (0.25 ng/h). Under isoflurane anesthesia, a 0.5 μg/mL dDAVP solution was injected subcutaneously using an osmotic minipump (ALZET 2002, Cupertino, CA, USA; 200 μL, low rate of 0.5 μL/h for […]). Rats were housed individually in metabolic cages to collect urine. Before using the pump, they were given 62.5 mL/d 1.0 kcal/mL of liquid food. After pump implantation, the rats received 40 mL of 2.1 kcal/mL of liquid feed daily. The rats were divided into five groups: control group (sham operation), model group (0.5% poloxamer, solvent), 4 mg/kg tolvaptan group, 4 mg/kg E3 group, and 20 mg/kg E3 group. E3 was administered orally every 8 h, while tolvaptan was given intragastrically once daily. At the end of the experiment, the rats were sacrificed.

Blood stability, mouse = format: in vitro ADME; details: plasma, n=3
Experimental: (§1) Plasma from mice, rats, rabbits, and humans was obtained from blood after centrifugation at 3000 r/min for 10 min. Simulated gastric fluid (SGF, pH = 1, containing pepsin) and simulated intestinal fluid (SIF, pH = 6.8, containing trypsin) were configured previously in the experiments. SD rats and mice were collected, and after removing the mucus layer from the small intestine and colon, 20 times the volume of liquid bacterial culture medium was added. An intestinal microbiota suspension was obtained after anaerobic cultivation on a shaking table at 37 °C for 12 h. In the aforementioned systems, E3 was added at a final concentration of 1 μmol/L at 37 °C for different incubation times (0, 10, 20, 30, 60, 120, and 240 min). In liver metabolic stability assays, E3 was incubated with liver microsomes or liver homogenate from mice or rats for 60 min at 37 °C. The stop solution, 5 ng/mL tolbutamide (internal standard, IS) in acetonitrile, was added to stop the metabolic process. Post-centrifugation (18,000× g, 10 min, 4 °C), supernatants were subjected to liquid chromatography–tandem mass spectrometry (LC–MS/MS). Analyte-to-IS peak area ratios quantified residual percentages via Equation (2):Remaining% = (E3peak area/ISpeak area at different time)/(E3peak area/ISpeak area at 0 min) × 100%.(2)

[2] = Stability in simulated gastric fluid (SGF) and simulated intestinal fluid (SIF); format: in vitro ADME; details: 1 μmol/L; 37 °C; after 4 h
Experimental: as §1

[3] = Liver homogenate metabolic stability, rat; format: in vitro ADME
Experimental: as §1

[4] = SIADH rats, E3 4 or 20 mg/kg every 8 h, tolvaptan 4 mg/kg once daily, vs model rats

With `CC(=O)c1ccc(C(=O)Nc2cccc(NS(=O)(=O)c3ccccc3)c2)o1` [Compound E3, 5-acetyl-N-(3-(phenylsulfonamido)phenyl)furan-2-carboxamide] the “maximum inhibition rate, rat cells” value (UT-B; erythrocyte lysis assay) was “approximately 100%”, the IC50 (UT-B; erythrocyte lysis model, rat, n = 3, means, read-out: IC50 (μM) Rat) was 0.01 µM and the IC50 (UT-B; red blood cell lysis assay, read-out: IC50 for UT-B-promoted urea transport, rats) was 0.0076 µM. For the same compound, the IC50 (rat UT-B) was 58 nM, the “hyponatremia in SIADH rats” value ([1]; E3 4 or 20 mg/kg orally every 8 h, tolvaptan 4 mg/kg once daily, vs model) was “significantly alleviated” and the serum osmolality [1, 4] was “significantly increased”. For the same compound, the serum sodium concentration [1, 4] was “significantly increased”, the blood urea levels ([1]; SIADH rats, between experimental groups before and after treatment) was “no significant difference” and the “H&E staining of kidney and liver” value ([1]; SIADH rats, except dilatation of collecting ducts) was “normal tissue structures”. For the same compound, the remaining at 1 μmol/L (Blood stability, mouse) was 45.3%, the “E3 remaining in SGF (pH 1.0) and SIF (pH 6.8)” value [2] was “More than 90%” and the “CLhep, rat liver homogenate” value ([3]; calculated with 45 mg/g liver, 40 g liver/kg) was 46.4 mL/min/kg. The remaining at 1 h ([3]; rat, liver homogenate, 60 min incubation, 37 °C, n=3) was 69%.

Reference: PMC12024912, “Druggability Studies of Benzene Sulfonamide Substituted Diarylamide (E3) as a Novel Diuretic” (Biomedicines, 2025)
